Patent publication EP1016409B1, “FREEZE DRIED COMPOSITION COMPRISING GLYCOSPHINGOLIPIDS” (KIRIN BEER KABUSHIKI KAISHA, priority 1997, dated 1998)

Experiments:
Format in all cases: physicochemical
[1] = Additives for improving re-solubility during storage, sucrose as excipient; conditions: lyophilized, KRN7000 200 µg/ml, Polysorbate 20 0.5%, Sucrose 9.6%
Description: (§1) First, Polysorbate 20 was dissolved in distilled water in a concentration of 0.5%, and sucrose and a variety of additives such concentrations as listed in Table 9. Next, 20 mg of the active component (KRN7000) was weighed and stirred in 100 ml of the solvents in a heated bath to 80°C for 20 minutes in order to form a solution. After cooling with running water, the mixture was filtered through a 0.22 µm filter, and transparent colorless glass vials having a volume of 5 ml were charged with a 1 ml portion of each of a variety of solutions thus obtained and subjected to lyophilization. Lyophilization was carried out under the condition of preliminary freezing at -40°C for 2 hours and drying at -20°C for 24 hours, 10°C for 12 hours, and finally at 25°C for 5 hours to give the lyophilized product. The degree of vacuum was set at 0.1 Torr or less during drying step.
After the lyophilization step, the lyophilized composition thus obtained was stored at 25°C or 50°C, or at both of these temperatures. After storage at 25°C for 1 month or at 50°C for 3 days, the lyophilized composition was reconstituted in 1 ml of distilled water for injection, left standing for 30 minutes, and solubility was judged when the foams generated on reconstitution disappeared. The samples judged in solution were further stored, and judged again of their solubility after storage at 25°C for 4 months or at 50°C for 2 weeks.
(§2) The solubility was judged by cleaning the outside of the vial and placing it beneath the white light source in a darkroom for observation with naked eye at the position of a luminous intensity of about 5,000 lux. When the sample was clear with no precipitates, it was judged that the active component was dissolved.

[2] = Optimal formulation: re-solubility after storage; conditions: lyophilized, KRN7000 200 µg/ml, Polysorbate 20 0.5%
Description: as §1, with “and histidine or sodium deoxycholate in” for “and a variety of additives”, “concentrations” for “concentrations as”, “listed on” for “listed in”, “Table 11.” for “Table 9.”
After the lyophilization step, the lyophilized composition thus obtained was stored at 25°C or 50°C. After storage at 25°C for 2 months or at 50°C for 2 weeks, the lyophilized composition was reconstituted in 1 ml of distilled water for injection, left standing for 30 minutes, and solubility was judged when the foams generated on reconstitution disappeared. The samples judged to be solution after storage at 25°C for 2 months were further stored, and judged again of their solubility after storage for 4 months.
as §2

[3] = Optimal amount of Polysorbate 20: solubility of the solution after storage, by naked eye; design: key: + not dissolved (or deposited); - dissolved; conditions: KRN7000 200 µg/ml, 25°C
Description: Next, 20 mg of the active component (KRN7000) was weighed and stirred in 100 ml of the Polysorbate solutions having a variety of concentrations in a heated bath at 80°C for 20 minutes in order to form a solution. After cooling with running water, the mixture was filtered through a 0.22 µm filter, and transparent colorless glass vials having a volume of 5 ml were charged with a 2 ml portion of each of a variety of solutions and sealed up.
These samples were stored at 25°C for 2 weeks, and judged of their solubility. The samples judged in solution were further stored, and judged again of their solubility after 1 month.
as §2, with “in the” for “in a”

With `CCCCCCCCCCCCCCCCCCCCCCCCCC(=O)N[C@@H](CO[C@H]1O[C@H](CO)[C@H](O)[C@H](O)[C@H]1O)[C@H](O)[C@H](O)CCCCCCCCCCCCCC` [KRN7000, (2S,3S,4R)-1-(α-D-galactopyranosyloxy)-2-hexacosanoylamino-3,4-octadecanediol] the “Re-solubility after storage (by naked eye)” value (“Re-solubility after storage” below) ([1]; Arginine, 0.1%, 50°C, 3 days) was “+ (+ not dissolved (or deposited))”, the “Re-solubility after storage” value ([1]; Glycerol, 1%, 25°C, 1 month) was “+ (+ not dissolved (or deposited))” and the “Re-solubility after storage” value ([1]; Glycine, 0.1%, 50°C, 3 days) was “+ (+ not dissolved (or deposited))”. For the same compound, the “Re-solubility after storage” value ([1]; Glycine, 1%, 50°C, 3 days) was “+ (+ not dissolved (or deposited))”, the “Re-solubility after storage” value ([1]; Histidine, 2%, 50°C, 2 weeks) was “- (- dissolved)” and the “Re-solubility after storage” value ([1]; Histidine, 2%, 50°C, 3 days) was “- (- dissolved)”. The “Re-solubility after storage” value ([1]; Pluronic F68, 0.1%, 25°C, 1 month) was “- (- dissolved)”, the “Re-solubility after storage” value ([1]; Pluronic F68, 0.1%, 25°C, 4 month) was “+ (+ not dissolved (or deposited))” and the “Re-solubility after storage” value ([1]; Pluronic F68, 1%, 25°C, 1 month) was “- (- dissolved)”. The “Re-solubility after storage” value ([1]; Pluronic F68, 1%, 25°C, 4 month) was “+ (+ not dissolved (or deposited))”, the “Re-solubility after storage” value ([1]; Propylene glycol, 1%, 25°C, 1 month) was “+ (+ not dissolved (or deposited))” and the “Re-solubility after storage” value ([1]; Sodium deoxycholate, 0.1%, 25°C, 1 month) was “- (- dissolved)”. The “Re-solubility after storage” value ([1]; Sodium deoxycholate, 0.1%, 25°C, 4 month) was “+ (+ not dissolved (or deposited))”, the “Re-solubility after storage” value ([1]; Sodium deoxycholate, 1%, 25°C, 1 month) was “- (- dissolved)” and the “Re-solubility after storage” value ([1]; Sodium deoxycholate, 1%, 25°C, 4 month) was “- (- dissolved)”. For the same compound, the “Re-solubility after storage” value ([1]; Sodium deoxycholate, 1%, 50°C, 2 weeks) was “- (- dissolved)”, the “Re-solubility after storage” value ([1]; Sodium deoxycholate, 1%, 50°C, 3 days) was “- (- dissolved)” and the “Re-solubility after storage” value ([1]; no additive, 25°C, 1 month) was “- (- dissolved)”. The “Re-solubility after storage” value ([1]; no additive, 25°C, 4 month) was “+ (+ not dissolved (or deposited))”, the “Re-solubility after storage” value ([1]; no additive, 50°C, 3 days) was “+ (+ not dissolved (or deposited))” and the “Re-solubility after storage” value ([2]; Sucrose 1.1%, Histidine, 4%, 50°C, 2 weeks) was “+ (+ not dissolved (or deposited))”. The “Re-solubility after storage” value ([2]; Sucrose 3.1%, Histidine, 3%, 50°C, 2 weeks) was “- (- dissolved)”, the “Re-solubility after storage” value ([2]; Sucrose 3.2%, Histidine, 2%, 50°C, 2 weeks) was “- (- dissolved)” and the “Re-solubility after storage” value ([2]; Sucrose 4.8%, Sodium deoxycholate, 0.2%, 25°C, 2 months) was “+ (+ not dissolved (or deposited))”. For the same compound, the “Re-solubility after storage” value ([2]; Sucrose 4.8%, Sodium deoxycholate, 0.5%, 25°C, 2 months) was “- (- dissolved)”, the “Re-solubility after storage” value ([2]; Sucrose 4.8%, Sodium deoxycholate, 0.5%, 25°C, 4 months) was “- (- dissolved)” and the “Re-solubility after storage” value ([2]; Sucrose 4.8%, Sodium deoxycholate, 1%, 25°C, 2 months) was “- (- dissolved)”. For the same compound, the “Re-solubility after storage” value ([2]; Sucrose 4.8%, Sodium deoxycholate, 1%, 25°C, 4 months) was “- (- dissolved)”, the “Re-solubility after storage” value ([2]; Sucrose 4.8%, Sodium deoxycholate, 2%, 25°C, 2 months) was “- (- dissolved)” and the “Re-solubility after storage” value ([2]; Sucrose 4.8%, Sodium deoxycholate, 2%, 25°C, 4 months) was “- (- dissolved)”. The “Re-solubility after storage” value ([2]; Sucrose 5.0%, Histidine, 2%, 50°C, 2 weeks) was “- (- dissolved)”, the “Re-solubility after storage” value ([2]; Sucrose 5.1%, Histidine, 1%, 50°C, 2 weeks) was “- (- dissolved)” and the “Re-solubility after storage” value ([2]; Sucrose 6.9%, Histidine, 1%, 50°C, 2 weeks) was “- (- dissolved)”. The “Re-solubility after storage” value ([2]; Sucrose 7.9%, Histidine, 0.5%, 50°C, 2 weeks) was “+ (+ not dissolved (or deposited))”, the “Re-solubility after storage” value ([2]; Sucrose 9.6%, Histidine, 2%, 50°C, 2 weeks) was “- (- dissolved)” and the “Re-solubility after storage” value ([2]; Sucrose 9.6%, Sodium deoxycholate, 0.2%, 25°C, 2 months) was “+ (+ not dissolved (or deposited))”. For the same compound, the “Re-solubility after storage” value ([2]; Sucrose 9.6%, Sodium deoxycholate, 0.5%, 25°C, 2 months) was “- (- dissolved)”, the “Re-solubility after storage” value ([2]; Sucrose 9.6%, Sodium deoxycholate, 0.5%, 25°C, 4 months) was “- (- dissolved)” and the “Re-solubility after storage” value ([2]; Sucrose 9.6%, Sodium deoxycholate, 1%, 25°C, 2 months) was “- (- dissolved)”. For the same compound, the “Re-solubility after storage” value ([2]; Sucrose 9.6%, Sodium deoxycholate, 1%, 25°C, 4 months) was “- (- dissolved)”, the “Re-solubility after storage” value ([2]; Sucrose 9.6%, Sodium deoxycholate, 2%, 25°C, 2 months) was “- (- dissolved)” and the “Re-solubility after storage” value ([2]; Sucrose 9.6%, Sodium deoxycholate, 2%, 25°C, 4 months) was “- (- dissolved)”. For the same compound, the “Re-solubility after storage” value ([2]; Sucrose 19.2%, Sodium deoxycholate, 0.1%, 25°C, 2 months) was “+ (+ not dissolved (or deposited))”, the “Re-solubility after storage” value ([2]; Sucrose 19.2%, Sodium deoxycholate, 0.2%, 25°C, 2 months) was “+ (+ not dissolved (or deposited))” and the “Re-solubility after storage” value ([2]; Sucrose 19.2%, Sodium deoxycholate, 0.5%, 25°C, 2 months) was “+ (+ not dissolved (or deposited))”. For the same compound, the “Re-solubility after storage” value ([2]; Sucrose 19.2%, Sodium deoxycholate, 1%, 25°C, 2 months) was “+ (+ not dissolved (or deposited))”, the “Re-solubility after storage” value ([2]; Sucrose 19.2%, Sodium deoxycholate, 2%, 25°C, 2 months) was “+ (+ not dissolved (or deposited))” and the “Variation with the passage of time after storage (by naked eye)” value (“Variation with the passage of time” for short) ([3]; Polysorbate 20 0.1%, 2 weeks) was “+”. The “Variation with the passage of time” value ([3]; Polysorbate 20 0.2%, 2 weeks) was “+”, the “Variation with the passage of time” value ([3]; Polysorbate 20 0.3%, 1 month) was “+” and the “Variation with the passage of time” value ([3]; Polysorbate 20 0.3%, 2 weeks) was “-”. For the same compound, the “Variation with the passage of time” value ([3]; Polysorbate 20 0.5%, 1 month) was “+”, the “Variation with the passage of time” value ([3]; Polysorbate 20 0.5%, 2 weeks) was “-” and the “Variation with the passage of time” value ([3]; Polysorbate 20 1.0%, 1 month) was “+”. For the same compound, the “Variation with the passage of time” value ([3]; Polysorbate 20 1.0%, 2 weeks) was “-”, the “Variation with the passage of time” value ([3]; Polysorbate 20 2.0%, 1 month) was “+” and the “Variation with the passage of time” value ([3]; Polysorbate 20 2.0%, 2 weeks) was “-”. The “Variation with the passage of time” value ([3]; Polysorbate 20 4.0%, 1 month) was “+”, the “Variation with the passage of time” value ([3]; Polysorbate 20 4.0%, 2 weeks) was “-” and the “Variation with the passage of time” value ([3]; Polysorbate 20 8.0%, 1 month) was “+”. For the same compound, the “Variation with the passage of time” value ([3]; Polysorbate 20 8.0%, 2 weeks) was “-”.
